Source: PubChem BioAssay (NCI)
Several values for one entry are separate records, joined by “and”; a condition that tells them apart may be missing. Identical values can stand only once.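 All cell lines were grown in 96-well plates and treated with compound for 48 hours. GI50: concentration for 50% inhibition of growth. At the TGI there is no net growth.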

What was measured:
Assay in all cases: NCI tumour cell line growth inhibition, 48 h
ACHN renal = tested on: ACHN renal
BT-549 breast = tested on: BT-549 breast
EKVX NSCLC = tested on: EKVX NSCLC
HCT-116 colon = tested on: HCT-116 colon
HS 578T breast = tested on: HS 578T breast
HT29 colon = tested on: HT29 colon
MOLT-4 leukemia = tested on: MOLT-4 leukemia
TK-10 renal = tested on: TK-10 renal
UACC-62 melanoma = tested on: UACC-62 melanoma
SNB-75 CNS = tested on: SNB-75 CNS

## COC(=O)C1=C(O)C(C(=O)OC)[C@@]2(O)[C@@H](C(=O)OC)C(c3ccccc3Cl)C[C@@H]1[C@@H]2C(=O)OC (some centres not stated)
ACHN renal
  GI50: 5.96 µM
  TGI: 23.4 µM
BT-549 breast
  GI50: 7.65 µM
  TGI: 33.8 µM
EKVX NSCLC
  GI50: 19.4 µM
  TGI: 38.3 µM
HCT-116 colon
  GI50: 1.97 µM
  TGI: 4.12 µM
HS 578T breast
  GI50: 10.1 µM
  TGI: 43.7 µM
HT29 colon
  GI50: 6.28 µM
  TGI: 32.6 µM
MOLT-4 leukemia
  GI50: 3.31 µM
  TGI: 20.7 µM
TK-10 renal
  GI50: 10.3 µM
  TGI: 25.4 µM
UACC-62 melanoma
  GI50: 2.53 µM
  TGI: 6.89 µM

## NC(=S)N=Nc1c(O)[nH]c2ccccc12
ACHN renal
  GI50: 141 µM
  TGI: 394 µM
BT-549 breast
  GI50: 131 µM
  TGI: 258 µM
EKVX NSCLC
  GI50: 19.2 µM and 123 µM
  TGI: 318 µM
HCT-116 colon
  GI50: 152 µM
  TGI: 297 µM
HS 578T breast
  GI50: 195 µM
  TGI: 691 µM
HT29 colon
  GI50: 652 µM
  TGI: > 1000 µM
MOLT-4 leukemia
  GI50: 243 µM
  TGI: > 1000 µM
SNB-75 CNS
  GI50: 91.7 µM and 174 µM
  TGI: 419 µM
TK-10 renal
  GI50: 165 µM
  TGI: 326 µM
UACC-62 melanoma
  GI50: 209 µM
  TGI: 497 µM

## Nc1nc(Cl)c2ncn(Cc3ccc(-c4ccc(CCl)cc4)cc3)c2n1
ACHN renal
  GI50: 4.5 µM
  TGI: > 100 µM
BT-549 breast
  GI50: 7.13 µM
  TGI: 37.8 µM
EKVX NSCLC
  GI50: 10.6 µM
  TGI: 40.1 µM
HCT-116 colon
  GI50: 6.71 µM
  TGI: 23.7 µM
HS 578T breast
  GI50: 43.4 µM
  TGI: > 100 µM
HT29 colon
  GI50: 11.3 µM
  TGI: 43.1 µM
MOLT-4 leukemia
  GI50: > 100 µM
  TGI: > 100 µM
SNB-75 CNS
  GI50: 10.3 µM
  TGI: 28.1 µM
TK-10 renal
  GI50: 6.44 µM
  TGI: 19.8 µM
UACC-62 melanoma
  GI50: 9.26 µM
  TGI: 23 µM

## CCCCCCCCC(=O)NCCN(CCN)C(=O)CCCCCCCC
ACHN renal
  TGI: 19.2 µM
BT-549 breast
  TGI: 22.8 µM
EKVX NSCLC
  TGI: 36.2 µM
HCT-116 colon
  TGI: 8.02 µM
HS 578T breast
  TGI: 24 µM
HT29 colon
  TGI: 7.15 µM
MOLT-4 leukemia
  TGI: 8.57 µM
SNB-75 CNS
  TGI: 15.2 µM
TK-10 renal
  TGI: 30 µM
UACC-62 melanoma
  TGI: 21.9 µM

## N#CC1C(=O)NC(=O)C(C#N)C1c1ccc(Cl)c(Cl)c1 (configuration not stated)
ACHN renal
  TGI: 50.9 µM
BT-549 breast
  TGI: > 100 µM
EKVX NSCLC
  TGI: > 100 µM
HCT-116 colon
  TGI: 29.7 µM
HS 578T breast
  TGI: 65.6 µM
HT29 colon
  TGI: 33 µM
MOLT-4 leukemia
  TGI: 62 µM
SNB-75 CNS
  TGI: 74.2 µM
TK-10 renal
  TGI: 98.4 µM

## COn1cc(C(=O)N=C(SC)SC)c2ccccc21
ACHN renal
  GI50: 22 µM
  TGI: 47.7 µM
BT-549 breast
  GI50: 19.2 µM
  TGI: 63.3 µM
EKVX NSCLC
  GI50: 25 µM
  TGI: 77.5 µM
HS 578T breast
  GI50: 16.7 µM
  TGI: 54.3 µM
HT29 colon
  GI50: 42.1 µM
  TGI: > 100 µM
MOLT-4 leukemia
  GI50: 9.42 µM
  TGI: 30.1 µM
SNB-75 CNS
  GI50: 68.7 µM
  TGI: > 100 µM
UACC-62 melanoma
  GI50: 20.2 µM
  TGI: 55.8 µM

## CN1CCN(Cc2ccc(NC(=O)c3[nH]ncc3Nc3cc(OC4CCCC4)ncn3)cc2)CC1
ACHN renal
  GI50: 1.09 µM
  TGI: 3.1 µM
BT-549 breast
  GI50: 1.75 µM
  TGI: 3.97 µM
EKVX NSCLC
  GI50: 3.86 µM
  TGI: 18.6 µM
HCT-116 colon
  GI50: 0.755 µM
  TGI: 11 µM
HS 578T breast
  GI50: 2.2 µM
  TGI: 30 µM
HT29 colon
  GI50: 2.53 µM
  TGI: 8.53 µM
MOLT-4 leukemia
  GI50: 2.16 µM
  TGI: 8.66 µM
SNB-75 CNS
  GI50: 3.53 µM
  TGI: 16.4 µM
TK-10 renal
  GI50: 11 µM
  TGI: 23.7 µM
UACC-62 melanoma
  GI50: 3.44 µM
  TGI: 11.1 µM

## CC(=O)Nc1cc(CN2CCCCC2)c(O)c2ncccc12
ACHN renal
  TGI: 72.2 µM
BT-549 breast
  TGI: > 100 µM
EKVX NSCLC
  TGI: > 100 µM
HCT-116 colon
  TGI: 75.9 µM
HS 578T breast
  TGI: > 100 µM
HT29 colon
  TGI: > 100 µM
MOLT-4 leukemia
  TGI: 43.1 µM
TK-10 renal
  TGI: > 100 µM
UACC-62 melanoma
  TGI: 46.3 µM

## O=C(O)CSc1nnc2c3ccccc3c3ccccc3c2n1
ACHN renal
  TGI: > 100 µM
BT-549 breast
  TGI: > 100 µM
EKVX NSCLC
  TGI: > 100 µM
HCT-116 colon
  TGI: > 100 µM
HS 578T breast
  TGI: > 100 µM
HT29 colon
  TGI: > 100 µM
SNB-75 CNS
  TGI: > 100 µM
TK-10 renal
  TGI: > 100 µM
UACC-62 melanoma
  TGI: > 100 µM

## CC(=O)N1c2ccc(-c3ccc(C(=O)O)cc3)cc2[C@H](Nc2ccc(Cl)cc2)C[C@@H]1C
ACHN renal
  GI50: 0.41 µM
  TGI: 21.9 µM
BT-549 breast
  GI50: 1.27 µM
  TGI: 29.6 µM
EKVX NSCLC
  GI50: 0.452 µM
  TGI: > 64 µM
HCT-116 colon
  GI50: 0.266 µM
  TGI: 15.2 µM
HS 578T breast
  GI50: 0.0549 µM
  TGI: > 57.9 µM
HT29 colon
  GI50: 0.122 µM
  TGI: 29 µM
MOLT-4 leukemia
  GI50: 1.79 µM
  TGI: 39.2 µM
SNB-75 CNS
  GI50: < 0.0165 µM
  TGI: > 100 µM
TK-10 renal
  GI50: 0.0569 µM
  TGI: 17.9 µM
UACC-62 melanoma
  GI50: 0.0261 µM
  TGI: 11.5 µM

## CN1C(=O)C(C)(C)Oc2c(-c3cn(C)c(=O)c4[nH]ccc34)cc(S(C)(=O)=O)cc21
ACHN renal
  GI50: 1.39 µM
  TGI: > 100 µM
BT-549 breast
  GI50: 1.09 µM
  TGI: 14.7 µM
EKVX NSCLC
  GI50: 0.972 µM
  TGI: > 100 µM
HCT-116 colon
  GI50: 1.13 µM
  TGI: 12.2 µM
HS 578T breast
  GI50: 0.425 µM
  TGI: 6.71 µM
HT29 colon
  GI50: 0.339 µM
  TGI: > 100 µM
MOLT-4 leukemia
  GI50: 1.42 µM
  TGI: > 100 µM
SNB-75 CNS
  GI50: 0.155 µM
  TGI: 1.49 µM
TK-10 renal
  GI50: 0.495 µM
  TGI: 14.6 µM
UACC-62 melanoma
  GI50: 0.39 µM
  TGI: 11.8 µM

## N#CC(CC(=O)O)=C(c1ccccc1)c1ccccc1
ACHN renal
  TGI: > 100 µM
BT-549 breast
  TGI: > 100 µM
EKVX NSCLC
  TGI: > 100 µM
HCT-116 colon
  TGI: > 100 µM
HS 578T breast
  TGI: > 100 µM
HT29 colon
  TGI: > 100 µM
SNB-75 CNS
  TGI: > 100 µM
TK-10 renal
  TGI: > 100 µM
UACC-62 melanoma
  TGI: > 100 µM

## O=C(N/N=C/c1cccc(O)c1)c1ccc(C(F)(F)F)nc1Nc1cccc(C(F)(F)F)c1
ACHN renal
  GI50: 2.09 µM
  TGI: 6.35 µM
BT-549 breast
  GI50: 0.76 µM
  TGI: 3.41 µM
EKVX NSCLC
  GI50: 1.01 µM
  TGI: 3.37 µM
HCT-116 colon
  GI50: 1.93 µM
  TGI: 5.69 µM
HS 578T breast
  GI50: 1.86 µM
  TGI: 5.86 µM
HT29 colon
  GI50: 3.47 µM
  TGI: 11.2 µM
MOLT-4 leukemia
  GI50: 0.43 µM
  TGI: 2.09 µM
SNB-75 CNS
  GI50: 1.58 µM
  TGI: 6.03 µM
TK-10 renal
  GI50: 1.44 µM
  TGI: 4.64 µM
UACC-62 melanoma
  GI50: 1.81 µM
  TGI: 4.12 µM

## CC(C)CC1NC(=O)C(C(C)C)NC(=O)CC(C)COC(=O)C(CC(C)C)N(C)C(=O)C(C(C)C)NC(=O)C(C(C)C)OC1=O (configuration not stated)
ACHN renal
  TGI: > 50 µM
BT-549 breast
  TGI: > 50 µM
EKVX NSCLC
  TGI: > 50 µM
HCT-116 colon
  TGI: > 50 µM
HS 578T breast
  TGI: > 50 µM
HT29 colon
  TGI: > 50 µM
MOLT-4 leukemia
  TGI: > 50 µM
SNB-75 CNS
  TGI: 30.2 µM
UACC-62 melanoma
  TGI: > 50 µM

## COc1ccc(CNC(=O)c2c(C)n([O-])c3cc(F)c(F)cc3[n+]2=O)cc1
ACHN renal
  GI50: 16.9 µM
  TGI: 30.6 µM
BT-549 breast
  GI50: 13.8 µM
  TGI: 26.8 µM
HCT-116 colon
  GI50: 14.1 µM
  TGI: 27.1 µM
HS 578T breast
  GI50: 2.11 µM
  TGI: 5.96 µM
HT29 colon
  GI50: 3.91 µM
  TGI: 16 µM
MOLT-4 leukemia
  GI50: 4.61 µM
  TGI: 21.2 µM
SNB-75 CNS
  GI50: 0.461 µM
  TGI: 5.58 µM
TK-10 renal
  GI50: 14.1 µM
  TGI: 27.1 µM
UACC-62 melanoma
  GI50: 15 µM
  TGI: 28.5 µM
